Earlier results as cited in patent US20200338057A1, “Methods of Treating Prostate Cancer Based on Molecular Subtypes” (Janssen Pharmaceutica NV, priority 2019, published 2020).

What was measured:
[1] = system: noncastrate hormone-sensitive and bicalutamide-resistant human prostate cancer xenograft models; settings: noncastrate hormone-sensitive and bicalutamide-resistant human prostate cancer xenografts

AR binding affinity (AR) | Structure (SMILES) | Tumor response in xenograft models [1]
– | CNC(=O)c1ccc(N2C(=S)N(c3cnc(C#N)c(C(F)(F)F)c3)C(=O)C23CCC3)cc1F [Apalutamide, 4-[7-(6-cyano-5-trifluoromethylpyridin-3-yl)-8-oxo-6-thioxo-5,7-diazaspiro[3.4]oct-5-yl]-2-fluoro-N-methylbenzamide] | partial or complete tumor regression
high affinity | CC(O)c1cc(C(=O)N[C@@H](C)Cn2ccc(-c3ccc(C#N)c(Cl)c3)n2)[nH]n1 (some centres unmarked) [Darolutamide, darolutamide] | –
